The text below walks through data of patent US20250059180A1 (DONG WHA PHARM. CO., LTD., priority 2022, published 2025).

Where two headings read alike, the source gives them in different places. Some results are limits rather than exact numbers.

The target in one assay is EZH2 (Homo sapiens, UniProt Q15910). In words: AlphaLISA evaluation of inhibitory activity against EZH2. The format is biochemical. To be noted: DMSO control; for Enzyme inhibition % EZH2 5 nM: test material 5 nM; for Enzyme inhibition % EZH2 10 nM: test material 10 nM. As to the method:
(§1) In order to confirm the EZH1 and/or EZH2 activity inhibitory effect of the 1,3-benzodioxole derivative compounds represented by chemical formula I of the present invention, the activity was measured using an AlphaLISA test method.
(§2) The test material dissolved in dimethylsulfoxide (DMSO) was diluted in a test solution (20 mM Tris pH 8.0, 0.1% BSA, 0.01% Triton X-100, 0.5 mM DTT) according to a final treatment concentration (5 nM or 10 nM), mixed with EZH1 and EZH2, respectively, and then added with histone H3 peptide and S-adenosylmethionine (SAM) to initiate an enzyme reaction. An acceptor bead was added thereto after reaction for two hours and subjected to an additional reaction for one hour, after which a donor bead was added thereto. After an additional reaction for 30 minutes, the reaction was completed. Activity was measured using the Magellan program on a Spark10M instrument. DMSO was used as a control group, an inhibition rate of enzyme activity was calculated using the following equation, and the results thereof are shown in Table 1 below.
(§3) Activity inhibition rate (%)=(1−(Group treated with test material/Control group))*100
For orientation: Alpha assays give light when donor and acceptor beads are brought close together.

The subject of assay [1] is Pfeiffer cells, lymphoma cells having EZH2 mutation (A677G). Description: Proliferation inhibition of cells of hematologic malignancies (CCK-8, 11 days). To be noted: 11 days culture, read-out: Cell proliferation inhibitory effect (IC50). The format is cell-based. The gist of the method:
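Pfeiffer lymphoma cells (EZH2 A677G) in RPMI1640 with 10% FBS were seeded at 10,000 cells/well and exposed to test material for 11 days, with compound replaced every 3–4 days. Viability was read by CCK-8 absorbance at 450 nm, and IC50 was derived by non-linear regression curve fitting.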

A further assay addresses EZH1 (Homo sapiens, UniProt Q92800). Description: AlphaLISA evaluation of inhibitory activity against EZH1. The format is biochemical. The settings on record: DMSO control; for Enzyme inhibition % EZH1 5 nM: test material 5 nM; for Enzyme inhibition % EZH1 10 nM: test material 10 nM. As for the experimental part: as §1, §2, §3

Chain of EZH2 (Q15910 whole entry): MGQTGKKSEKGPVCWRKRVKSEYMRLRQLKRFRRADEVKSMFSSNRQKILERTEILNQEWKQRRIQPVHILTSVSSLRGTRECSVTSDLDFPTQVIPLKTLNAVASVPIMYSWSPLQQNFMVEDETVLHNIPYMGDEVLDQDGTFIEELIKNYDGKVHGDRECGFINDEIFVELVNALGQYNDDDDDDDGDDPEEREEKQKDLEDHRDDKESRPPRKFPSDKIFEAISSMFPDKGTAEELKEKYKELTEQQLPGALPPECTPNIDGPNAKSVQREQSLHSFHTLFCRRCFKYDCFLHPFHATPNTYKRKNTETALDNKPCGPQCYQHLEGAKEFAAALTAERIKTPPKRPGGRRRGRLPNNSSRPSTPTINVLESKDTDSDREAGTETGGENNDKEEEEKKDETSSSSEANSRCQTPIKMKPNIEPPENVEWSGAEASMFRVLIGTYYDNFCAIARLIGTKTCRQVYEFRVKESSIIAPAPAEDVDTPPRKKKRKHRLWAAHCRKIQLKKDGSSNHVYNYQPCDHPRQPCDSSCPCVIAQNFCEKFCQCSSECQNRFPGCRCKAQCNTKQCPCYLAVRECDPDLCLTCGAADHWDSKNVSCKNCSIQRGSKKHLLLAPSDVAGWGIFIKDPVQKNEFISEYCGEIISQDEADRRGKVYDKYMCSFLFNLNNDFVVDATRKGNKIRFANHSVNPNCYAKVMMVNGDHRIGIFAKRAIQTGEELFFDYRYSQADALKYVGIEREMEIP
Chain of EZH2 (O75530 whole entry partner): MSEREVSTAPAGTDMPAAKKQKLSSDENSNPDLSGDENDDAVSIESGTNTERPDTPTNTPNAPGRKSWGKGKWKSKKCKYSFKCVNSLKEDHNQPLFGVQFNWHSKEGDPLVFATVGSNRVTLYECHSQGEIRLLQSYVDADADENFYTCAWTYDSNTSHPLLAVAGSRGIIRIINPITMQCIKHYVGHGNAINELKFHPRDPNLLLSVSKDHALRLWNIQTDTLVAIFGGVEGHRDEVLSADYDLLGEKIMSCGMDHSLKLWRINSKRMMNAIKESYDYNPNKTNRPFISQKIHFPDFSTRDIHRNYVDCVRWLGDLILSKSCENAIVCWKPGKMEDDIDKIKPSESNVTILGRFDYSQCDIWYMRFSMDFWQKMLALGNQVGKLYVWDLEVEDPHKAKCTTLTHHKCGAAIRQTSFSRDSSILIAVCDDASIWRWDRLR
Chain of EZH2 (Q15022 whole entry partner): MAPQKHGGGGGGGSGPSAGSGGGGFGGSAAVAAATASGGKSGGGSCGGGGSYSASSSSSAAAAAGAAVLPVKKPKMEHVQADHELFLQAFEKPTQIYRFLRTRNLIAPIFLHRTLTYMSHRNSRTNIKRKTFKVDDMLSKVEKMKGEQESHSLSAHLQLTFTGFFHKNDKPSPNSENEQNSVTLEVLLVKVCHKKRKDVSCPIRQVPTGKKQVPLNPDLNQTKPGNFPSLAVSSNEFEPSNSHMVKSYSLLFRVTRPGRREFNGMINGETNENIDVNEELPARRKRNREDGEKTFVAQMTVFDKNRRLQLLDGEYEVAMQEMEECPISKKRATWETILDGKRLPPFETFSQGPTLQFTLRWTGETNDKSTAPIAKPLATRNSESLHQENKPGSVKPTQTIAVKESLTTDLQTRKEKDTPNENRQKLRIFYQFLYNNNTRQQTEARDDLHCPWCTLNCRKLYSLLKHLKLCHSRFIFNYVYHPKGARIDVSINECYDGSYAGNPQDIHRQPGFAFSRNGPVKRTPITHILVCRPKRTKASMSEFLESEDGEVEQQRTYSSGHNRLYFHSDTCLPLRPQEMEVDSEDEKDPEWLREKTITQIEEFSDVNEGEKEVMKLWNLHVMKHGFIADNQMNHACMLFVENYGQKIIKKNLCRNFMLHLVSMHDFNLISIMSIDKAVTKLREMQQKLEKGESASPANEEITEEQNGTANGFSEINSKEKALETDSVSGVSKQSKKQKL
Chain of EZH1 (Q92800 whole entry): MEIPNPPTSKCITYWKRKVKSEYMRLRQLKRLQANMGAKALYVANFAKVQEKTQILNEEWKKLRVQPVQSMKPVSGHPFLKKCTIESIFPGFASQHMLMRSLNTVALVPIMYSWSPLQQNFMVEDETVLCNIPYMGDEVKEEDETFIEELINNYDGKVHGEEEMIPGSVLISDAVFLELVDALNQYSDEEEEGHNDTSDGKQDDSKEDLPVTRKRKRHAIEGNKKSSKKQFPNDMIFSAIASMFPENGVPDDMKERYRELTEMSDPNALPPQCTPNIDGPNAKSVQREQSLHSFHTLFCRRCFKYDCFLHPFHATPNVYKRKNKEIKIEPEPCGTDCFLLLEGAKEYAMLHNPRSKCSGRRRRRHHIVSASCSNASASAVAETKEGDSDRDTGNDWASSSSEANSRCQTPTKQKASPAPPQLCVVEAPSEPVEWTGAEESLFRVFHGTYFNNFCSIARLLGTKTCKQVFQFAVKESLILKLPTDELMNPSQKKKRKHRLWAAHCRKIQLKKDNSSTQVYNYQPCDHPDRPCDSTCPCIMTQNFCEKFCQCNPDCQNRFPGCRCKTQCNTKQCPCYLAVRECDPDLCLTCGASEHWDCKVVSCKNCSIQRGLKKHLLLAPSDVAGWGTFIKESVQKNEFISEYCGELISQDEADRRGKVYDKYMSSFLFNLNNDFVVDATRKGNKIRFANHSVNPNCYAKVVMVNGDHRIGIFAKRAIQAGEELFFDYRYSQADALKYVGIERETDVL
Chain of EZH1 (O75530 whole entry partner): as the sequence (O75530 whole entry partner) above
Chain of EZH1 (Q15022 whole entry partner): as the sequence (Q15022 whole entry partner) above

With `CSc1cc(C)[nH]c(=O)c1CNC(=O)c1cc(-c2ccc(N3CCOCC3)nc2)c2c(c1C)OC(C)(C1CCN(CC(F)(F)F)CC1)O2` (centres unmarked) [Compound 62, 2,4-dimethyl-N-((6-methyl-4-(methylthio)-2-oxo-1,2-dihydropyridin-3-yl)methyl)-7-(6-morpholinopyridin-3-yl)-2-(1-(2,2,2-trifluoro)piperidin-4-yl)benzo[d][1,3]dioxole-5-carboxamide], on EZH2, the “Enzyme inhibition % EZH2 5 nM” value was 93.6% and the “Enzyme inhibition % EZH2 10 nM” value is 99.4%. In addition, the IC50 in assay [1] is not above 0.01 µM. For the same compound, on EZH1, the “Enzyme inhibition % EZH1 5 nM” value was found to be 66.9% and the “Enzyme inhibition % EZH1 10 nM” value worked out at 81.8%.

Consider `CSc1cc(C)[nH]c(=O)c1CNC(=O)c1cc(-c2cnc(N3CCOCC3)nc2)c2c(c1C)OC(C)(C1CCN(CC(F)(F)F)CC1)O2` (centres unmarked) [Compound 69, 2,4-dimethyl-N-((6-methyl-4-(methylthio)-2-oxo-1,2-dihydropyridin-3-yl)methyl)-7-(2-morpholinopyrimidin-5-yl)-2-(1-(2,2,2-trifluoro)piperidin-4-yl)benzo[d][1,3]dioxole-5-carboxamide], for which, at EZH2, the “Enzyme inhibition % EZH2 5 nM” value was 98.2% and the “Enzyme inhibition % EZH2 10 nM” value was determined as 99.6%. For the same compound, the IC50 in assay [1] was not above 0.01 µM. Further, on EZH1, the “Enzyme inhibition % EZH1 5 nM” value is 71.9% and the “Enzyme inhibition % EZH1 10 nM” value came out at 87.9%.

For `CSc1cc(C)[nH]c(=O)c1CNC(=O)c1cc(-c2ccc(N3C[C@@H](C)O[C@@H](C)C3)nc2)c2c(c1C)OC(C)([C@H]1CC[C@H](N3CC(OCCCC(F)(F)F)C3)CC1)O2` (some centres unmarked) [Compound 104], on EZH2, the “Enzyme inhibition % EZH2 5 nM” value is 37.0% and the “Enzyme inhibition % EZH2 10 nM” value was 82.6%. Also, the IC50 in assay [1] (Homo sapiens, Pfeiffer, 264 h) is not above 0.01 µM. Besides, the “Enzyme inhibition % EZH1 10 nM” value on EZH1 is 19.9%.
